Assay results as given in PubChem BioAssay AID2060906 (Molecular Pharmacology Branch, DTP, NCI, 2025).

System: 485176-168-R4-J1-PDC complex spheroid growth
Test: Anticancer human tumor 485176-168-R4-J1-PDC patient-derived pancreatic adenocarcinoma cell line growth inhibition [RAS]
Settings: for IC50: curve of first compound; for viability, T/C: stronger effect = lower value
Summary of the method: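 Agents were tested in combination matrices in half-log decrements from a top concentration at or near clinical Cmax (10 microM if undetermined). Targets were multi-cell spheroids of tumour lines plus HUVEC and MSC stromal cells.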

[1] = second compound 0.000949 µM, first compound 0.00316 µM
[2] = second compound 0.000949 µM, first compound 0.01 µM
[3] = second compound 0.000949 µM, first compound 0.0316 µM
[4] = second compound 0.000949 µM, first compound 0.1 µM
[5] = second compound 0.000949 µM, first compound 0.316 µM
[6] = second compound 0.000949 µM, first compound 1 µM
[7] = second compound 0.003 µM, first compound 0.00316 µM
[8] = second compound 0.003 µM, first compound 0.01 µM
[9] = second compound 0.003 µM, first compound 0.0316 µM
[10] = second compound 0.003 µM, first compound 0.1 µM
[11] = second compound 0.003 µM, first compound 0.316 µM
[12] = second compound 0.003 µM, first compound 1 µM
[13] = second compound 0.00949 µM, first compound 0.00316 µM
[14] = second compound 0.00949 µM, first compound 0.01 µM
[15] = second compound 0.00949 µM, first compound 0.0316 µM
[16] = second compound 0.00949 µM, first compound 0.1 µM
[17] = second compound 0.00949 µM, first compound 0.316 µM
[18] = second compound 0.00949 µM, first compound 1 µM
[19] = second compound 0.03 µM, first compound 0.00316 µM
[20] = second compound 0.03 µM, first compound 0.01 µM
[21] = second compound 0.03 µM, first compound 0.0316 µM
[22] = second compound 0.03 µM, first compound 0.1 µM
[23] = second compound 0.03 µM, first compound 0.316 µM
[24] = second compound 0.03 µM, first compound 1 µM
[25] = second compound 0.0949 µM, first compound 0.00316 µM
[26] = second compound 0.0949 µM, first compound 0.01 µM
[27] = second compound 0.0949 µM, first compound 0.0316 µM
[28] = second compound 0.0949 µM, first compound 0.1 µM
[29] = second compound 0.0949 µM, first compound 0.316 µM
[30] = second compound 0.0949 µM, first compound 1 µM
[31] = second compound 0.3 µM, first compound 0.00316 µM
[32] = second compound 0.3 µM, first compound 0.01 µM
[33] = second compound 0.3 µM, first compound 0.0316 µM
[34] = second compound 0.3 µM, first compound 0.1 µM
[35] = second compound 0.3 µM, first compound 0.316 µM
[36] = second compound 0.3 µM, first compound 1 µM
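Also: spheroids exposed to compounds for seven days before readout.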
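For viability, T/C in this document: luminescence viability expressed relative to DMSO vehicle wells set as 100%.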

For C=CC(=O)N1CCN(c2nc(OCC3CCCN3C)nc3c(F)c(-c4nc(N)cc(C)c4C(F)(F)F)c(Cl)cc23)C(C)C1 (stereo unspecified) + CCn1c(-c2cc(N3CCN(C)CC3)cnc2C(C)OC)c2c3cc(ccc31)-c1csc(n1)CC(NC(=O)C1CC1C)C(=O)N1CCCC(N1)C(=O)OCC(C)(C)C2, the IC50 (second compound 0.000949 µM) was greater than 1 µM, the IC50 (second compound 0.003 µM) was greater than 1 µM and the IC50 (second compound 0.00949 µM) was greater than 1 µM. For the same molecule, the IC50 (second compound 0.03 µM) was greater than 1 µM, the IC50 (second compound 0.0949 µM) was greater than 1 µM and the IC50 (second compound 0.3 µM) was greater than 1 µM. It also gave a viability, T/C [1] of 95.4%, a viability, T/C [2] of 86.6% and a viability, T/C [3] of 100%. The viability, T/C [4] was 109%, the viability, T/C [5] was 114% and the viability, T/C [6] was 99%. For the same molecule, the viability, T/C [7] was 85.3%, the viability, T/C [8] was 89.7% and the viability, T/C [9] was 87.4%. The viability, T/C [10] was 103%, the viability, T/C [11] was 101% and the viability, T/C [12] was 97.2%. For the same molecule, the viability, T/C [13] was 89.3%, the viability, T/C [14] was 88.5% and the viability, T/C [15] was 96.5%. For the same molecule, the viability, T/C [16] was 108%, the viability, T/C [17] was 91.7% and the viability, T/C [18] was 114%. It also gave a viability, T/C [19] of 95.5%, a viability, T/C [20] of 97% and a viability, T/C [21] of 77.2%. The viability, T/C [22] was 79.7%, the viability, T/C [23] was 87.6% and the viability, T/C [24] was 87.8%. For the same molecule, the viability, T/C [25] was 84.4%, the viability, T/C [26] was 105% and the viability, T/C [27] was 80.4%. The viability, T/C [28] was 80.7%, the viability, T/C [29] was 76.1% and the viability, T/C [30] was 81.6%. It also gave a viability, T/C [31] of 72.9%, a viability, T/C [32] of 72.8% and a viability, T/C [33] of 82%. It also gave a viability, T/C [34] of 76.6%, a viability, T/C [35] of 91.8% and a viability, T/C [36] of 69.3%.
CC1(C)CCC(Nc2ncc(C(F)(F)F)c(-c3c[nH]c4c(P(C)(C)=O)c(C#N)ccc34)n2)CN1 (stereo unspecified) + CCn1c(-c2cc(N3CCN(C)CC3)cnc2C(C)OC)c2c3cc(ccc31)-c1csc(n1)CC(NC(=O)C1CC1C)C(=O)N1CCCC(N1)C(=O)OCC(C)(C)C2 showed an IC50 (second compound 0.000949 µM) greater than 0.3 µM, an IC50 (second compound 0.003 µM) greater than 0.3 µM and an IC50 (second compound 0.00949 µM) of 0.0825 µM. It also gave an IC50 (second compound 0.03 µM) of 0.121 µM, an IC50 (second compound 0.0949 µM) greater than 0.3 µM and an IC50 (second compound 0.3 µM) of 0.07 µM. For the same molecule, the viability, T/C (second compound 0.000949 µM, first compound 0.000949 µM) was 94.9%, the viability, T/C (second compound 0.000949 µM, first compound 0.003 µM) was 91.1% and the viability, T/C (second compound 0.000949 µM, first compound 0.00949 µM) was 93%. It also gave a viability, T/C (second compound 0.000949 µM, first compound 0.03 µM) of 59.2%, a viability, T/C (second compound 0.000949 µM, first compound 0.0949 µM) of 55.1% and a viability, T/C (second compound 0.000949 µM, first compound 0.3 µM) of 49.3%. For the same molecule, the viability, T/C (second compound 0.003 µM, first compound 0.000949 µM) was 93.5%, the viability, T/C (second compound 0.003 µM, first compound 0.003 µM) was 101% and the viability, T/C (second compound 0.003 µM, first compound 0.00949 µM) was 75.3%. It also gave a viability, T/C (second compound 0.003 µM, first compound 0.03 µM) of 54.5%, a viability, T/C (second compound 0.003 µM, first compound 0.0949 µM) of 52% and a viability, T/C (second compound 0.003 µM, first compound 0.3 µM) of 54.9%. It also gave a viability, T/C (second compound 0.00949 µM, first compound 0.000949 µM) of 84.9%, a viability, T/C (second compound 0.00949 µM, first compound 0.003 µM) of 96.3% and a viability, T/C (second compound 0.00949 µM, first compound 0.00949 µM) of 104%. It also gave a viability, T/C (second compound 0.00949 µM, first compound 0.03 µM) of 55.8%, a viability, T/C (second compound 0.00949 µM, first compound 0.0949 µM) of 51.5% and a viability, T/C (second compound 0.00949 µM, first compound 0.3 µM) of 46.9%. The viability, T/C (second compound 0.03 µM, first compound 0.000949 µM) was 101%, the viability, T/C (second compound 0.03 µM, first compound 0.003 µM) was 92.8% and the viability, T/C (second compound 0.03 µM, first compound 0.00949 µM) was 76.5%. It also gave a viability, T/C (second compound 0.03 µM, first compound 0.03 µM) of 64.4%, a viability, T/C (second compound 0.03 µM, first compound 0.0949 µM) of 49.8% and a viability, T/C (second compound 0.03 µM, first compound 0.3 µM) of 45.8%. The viability, T/C (second compound 0.0949 µM, first compound 0.000949 µM) was 87.1%, the viability, T/C (second compound 0.0949 µM, first compound 0.003 µM) was 76.8% and the viability, T/C (second compound 0.0949 µM, first compound 0.00949 µM) was 76.2%. The viability, T/C (second compound 0.0949 µM, first compound 0.03 µM) was 57.4%, the viability, T/C (second compound 0.0949 µM, first compound 0.0949 µM) was 61.9% and the viability, T/C (second compound 0.0949 µM, first compound 0.3 µM) was 54.8%. For the same molecule, the viability, T/C (second compound 0.3 µM, first compound 0.000949 µM) was 89.3%, the viability, T/C (second compound 0.3 µM, first compound 0.003 µM) was 93.4% and the viability, T/C (second compound 0.3 µM, first compound 0.00949 µM) was 70.5%. It also gave a viability, T/C (second compound 0.3 µM, first compound 0.03 µM) of 57.3%, a viability, T/C (second compound 0.3 µM, first compound 0.0949 µM) of 47% and a viability, T/C (second compound 0.3 µM, first compound 0.3 µM) of 47.2%.
C=CC(=O)Nc1cc(Nc2nccc(-c3cn(C)c4ccccc34)n2)c(OC)cc1N(C)CCN(C)C + CCn1c(-c2cccnc2C(C)OC)c2c3cc(ccc31)N1CCOC(CC(NC(=O)C(C(C)C)N(C)C(=O)C3(F)CCN(C(=O)C#CC(C)(C)N(C)C)CC3)C(=O)N3CCCC(N3)C(=O)OCC(C)(C)C2)C1 showed an IC50 (second compound 0.000949 µM) greater than 1 µM, an IC50 (second compound 0.003 µM) greater than 1 µM and an IC50 (second compound 0.00949 µM) greater than 1 µM. The IC50 (second compound 0.03 µM) was greater than 1 µM, the IC50 (second compound 0.0949 µM) was greater than 1 µM and the IC50 (second compound 0.3 µM) was greater than 1 µM. The viability, T/C [1] was 114%, the viability, T/C [2] was 109% and the viability, T/C [3] was 102%. The viability, T/C [4] was 97.6%, the viability, T/C [5] was 84.5% and the viability, T/C [6] was 72%. For the same molecule, the viability, T/C [7] was 98.2%, the viability, T/C [8] was 105% and the viability, T/C [9] was 90.3%. The viability, T/C [10] was 85.6%, the viability, T/C [11] was 99.1% and the viability, T/C [12] was 61.4%. It also gave a viability, T/C [13] of 104%, a viability, T/C [14] of 109% and a viability, T/C [15] of 102%. The viability, T/C [16] was 88.2%, the viability, T/C [17] was 80.8% and the viability, T/C [18] was 69%. The viability, T/C [19] was 86.8%, the viability, T/C [20] was 113% and the viability, T/C [21] was 114%. It also gave a viability, T/C [22] of 102%, a viability, T/C [23] of 89.9% and a viability, T/C [24] of 58.7%. The viability, T/C [25] was 81.6%, the viability, T/C [26] was 77.9% and the viability, T/C [27] was 81.6%. The viability, T/C [28] was 96.5%, the viability, T/C [29] was 92.3% and the viability, T/C [30] was 57.1%. The viability, T/C [31] was 87.6%, the viability, T/C [32] was 93% and the viability, T/C [33] was 82.7%. For the same molecule, the viability, T/C [34] was 93.1%, the viability, T/C [35] was 78.3% and the viability, T/C [36] was 65.9%.
